The values below come from publication PMC9739815, “Akt/mTOR Targeting Activity of Resveratrol Derivatives in Non-Small Lung Cancer” (Molecules, 2022).

One experiment relates to p-Akt in H23 cells. The experiment is described as follows: Immunofluorescence staining of p-Akt, H23 cells. It is filed as cell-based, human. As to conditions: 10–100 µM, vs untreated control. As for the experimental part: (§1) NSCLC cells (A549 and H23) were treated with RD2 and RD3 (10–100 μM) for 12 h. After which, all cells were collected and the expression levels of Akt, p-Akt, mTOR, and p-mTOR were investigated by Western blot analysis (Figure 5a, Figure 6a, Figure 7a and Figure 8a). […] Immunofluorescence staining of Akt, p-Akt, mTOR, and p-mTOR was performed in RD2 and RD3 treated cells. The results further confirm the effect of RD2 and RD3 on the Akt/mTOR pathway.
(§2) Cells were seeded at a density of 1 × 10^4 cells/well in 6-well plates overnight. Cells were treated with various concentrations resveratrol derivatives ([…]) and were treated for 12 h. Then, they were fixed with 4% paraformaldehyde in PBS for 15 min, permeabilized for 5 min with 0.5% Triton-X, and blocked with 0.1% Triton-X in 10% FBD in PBS for 1 h at room temperature. Cells were added to the primary antibody Akt (#9272), phosphorylated Akt (#4060), mTOR (#2983S), and p-mTOR (#5536S). Then, they were incubated at 4 °C overnight. After that, they were incubated with secondary antibody for 1 h and stained with Hoechst 33342 for 30 min at room temperature in a dark place. The images were visualized under a fluorescent microscope (Olympus DP70, Melville, NY, USA) and analyzed by The ImageJ software.

Another experiment deals with p-Akt in A549 cells. The experiment is described as follows: Immunofluorescence staining of p-Akt, A549 cells. It is filed as cell-based, human. As to conditions: 10–100 µM, vs untreated control. As for the experimental part: as §1, §2

SMILES strings stand for the structures.

Turning to `COc1ccc(CCc2ccc(O)c(OC)c2)cc1O` [RD3, 4-(3-hydroxy-4-methoxyphenethyl)-2-methoxyphenol], the p-Akt intensity result in the experiment on p-Akt in H23 cells and in the experiment on p-Akt in A549 cells was “significantly increased” in each case.
